In brackets after ≈: the same amount, converted by molar mass.

For this series the following is noted: buffer; pH 7.4; 200.0 µM.
By kinetic solubility is commonly meant solubility judged after dilution from a stock solution rather than from solid. Take `CN1CCN(C(=O)c2cc(Cl)cc(Cl)c2)CC1`: the solubility (kinetic) is greater than 41 µg/mL.
The same measure for `COc1cc(C(=O)NC(c2ccccc2)c2ccccc2)cc(OC)c1OC`: less than 0.8 µg/mL.
Compound `Clc1ccc(N=C2SCCS2)cc1` registered a kinetic solubility of 11 µg/mL (≈ 47.9 µM).
The same measure for `Cc1cc(C)nc(SCC(=O)c2ccc(F)cc2F)n1`: greater than 44.1 µg/mL; for `N#C/C(=C\c1ccccc1)C(=O)NCc1ccc(F)cc1`: 5.3 µg/mL (≈ 18.9 µM); for `Cc1ccc(N2CCN(C(=S)Nc3ccccc3C)CC2)cc1`: 0.6 µg/mL (≈ 1.84 µM).
The result for `Cc1cc(SCC(=O)Nc2ccc3[nH]c(=O)[nH]c3c2)nc2ccccc12` reads 2.9 µg/mL (≈ 7.96 µM); that for `Cc1noc(C)c1C(=O)Nc1nc2ccc(Cl)cc2s1`, 2.1 µg/mL (≈ 6.82 µM); that for `CC1(c2ccc3ccccc3c2)NC(=O)NC1=O` (centres undefined), 29.3 µg/mL (≈ 122 µM).
As to `CCN1CCN(C(=O)c2cc(-c3ccc(Cl)s3)nc3ccccc23)CC1`, the solubility (kinetic) came to 53.5 µg/mL (≈ 139 µM).
The result for `CCC1Oc2ccccc2N(CC(=O)NC2CCCC2)C1=O` (centres undefined) reads 42.2 µg/mL (≈ 140 µM); that for `CN(C(=O)COC(=O)C1CCN(S(=O)(=O)c2ccc(Cl)cc2)CC1)C1CCS(=O)(=O)C1` (centres undefined), 18 µg/mL (≈ 36.5 µM); that for `N#CC1(NC(=O)CN2C(=O)NC(Cc3c[nH]c4ccccc34)C2=O)CCCCC1` (centres undefined), greater than 59 µg/mL.
The same measure for `O=C(NC1CSCC1OC(=O)c1ccccc1)c1ccccc1` (centres undefined): 26.1 µg/mL (≈ 79.7 µM); for `O=C(NC1CCCCC1)c1ccc2c(c1)OCCO2`: 34.8 µg/mL (≈ 133 µM).
`COc1cccc(Nc2nc(C)cc(C)c2C(N)=O)c1` came in with a kinetic solubility greater than 40.7 µg/mL.
The same measure for `Cn1cccc1C(=O)NCCc1ccccc1`: greater than 34.2 µg/mL; for `COc1ccc(NC(=O)CSc2ccccc2)c([N+](=O)[O-])c1`: 3.4 µg/mL (≈ 10.7 µM); for `C/C(N)=C(/C#N)C(=O)COC(=O)c1cc2c(s1)CCCC2`: 2.2 µg/mL (≈ 7.23 µM).
The result for `COc1ccc(CC(=O)Nc2ccc(N3CCCC3)c(C)c2)cc1` reads 8.9 µg/mL (≈ 27.4 µM); that for `N#CCCN(C(=O)COC(=O)c1ccc2c(c1)OCCO2)c1ccccc1`, 52 µg/mL (≈ 142 µM); that for `CN1CCC(C)(O)C2CCCCC21` (centres undefined), greater than 27.5 µg/mL.
`O=C(c1ccc(COc2ccccc2Cl)o1)N1CCOCC1` had a solubility (kinetic) of 34.4 µg/mL (≈ 107 µM).
Compound `CC[n+]1oc(-c2ccccc2)cc1C.F[B-](F)(F)F` returned a solubility (kinetic) of 37.4 µg/mL.
Regarding `Cc1ccc(-c2cc(NC(=O)c3ccccc3)on2)cc1`, the solubility (kinetic) was less than 0.3 µg/mL.
`CC1(C)NC(=O)N(Cc2cc(=O)n3ccsc3n2)C1=O` showed a solubility (kinetic) greater than 43.8 µg/mL.
In turn, `Cc1ccc(N2CN(CCc3ccccc3)CNC2=S)cc1` yielded a solubility (kinetic) of 6.5 µg/mL (≈ 20.9 µM).
In turn, `CC(=O)c1c(C)[nH]c(C(=O)Nc2cccc(C)c2C)c1C` displayed a solubility (kinetic) of 2 µg/mL (≈ 7.03 µM).
The result for `CN(c1ccccc1)S(=O)(=O)c1ccc2c(c1)oc(=O)n2C` reads 27.1 µg/mL (≈ 85.1 µM).
The result for `COCCCNC(=O)c1cc2cc3cc(OC)ccc3nc2o1` reads greater than 47.2 µg/mL; that for `O=C(O)c1cc(N2C(=O)CCC2=O)ccc1Cl`, greater than 38 µg/mL; that for `COc1ccccc1C(=O)OCCN=C1NS(=O)(=O)c2ccccc21`, greater than 54.1 µg/mL.
The same measure for `CC1CCN(S(=O)(=O)c2ccc([N+](=O)[O-])cc2)CC1`: 3.2 µg/mL (≈ 11.3 µM); for `Cc1ccc(-c2ccnc3cc(C)nn23)cc1`: greater than 33.5 µg/mL; for `CN(c1ccccc1)S(=O)(=O)c1ccc2ccccc2c1`: 2.4 µg/mL (≈ 8.07 µM).
Consider `O=S(=O)(c1ccc(Br)cc1)N1CCCc2ccccc21`, for which the kinetic solubility came out at 1.6 µg/mL (≈ 4.54 µM).
The same measure for `COc1ccccc1/C=C(\C)C(=O)c1c(C)cc(C)[nH]c1=O`: greater than 44.6 µg/mL.
The same measure for `O=C(c1ccncc1)c1ccc([N+](=O)[O-])cc1`: greater than 34.2 µg/mL; for `CSCc1ccc(C(=O)Nc2ccc(C(N)=O)cc2)cc1`: 0.8 µg/mL (≈ 2.66 µM).
In the case of `CN(C)NC(=S)NC1(C)CCS(=O)(=O)C1` (centres undefined), the kinetic solubility is greater than 37.7 µg/mL.
The result for `CCCNC(=O)CCn1c(=S)oc2ccccc21` reads greater than 39.7 µg/mL; that for `COC(=O)C(Cc1ccccc1)NC(=O)CCc1c[nH]c2ccccc12` (centres undefined), greater than 52.6 µg/mL.
The result for `O=C(Nc1nc2cc3c(cc2s1)OCO3)C1CC1` reads less than 0.3 µg/mL; that for `Cc1cc(=O)n2cccc(O)c2n1.Cl`, 21.7 µg/mL; that for `Cc1cccn2c(=O)c(/C=N/O)c(Nc3ccccc3F)nc12`, 0.2 µg/mL (≈ 0.64 µM).
Regarding `CCCCOc1ccc(C2=CSC3=NCCN23)cc1[N+](=O)[O-]`, the solubility (kinetic) was greater than 47.9 µg/mL.
The result for `CSc1ccccc1NC(=O)c1ccccc1C` reads 30.9 µg/mL (≈ 120 µM); that for `CC1CCCC(C)N1C(=O)CSc1nccc(=O)[nH]1` (centres undefined), 29.3 µg/mL (≈ 104 µM).
The same measure for `CC(C)(C)CC(=O)Nc1ccc(S(=O)(=O)NC2=NCCCCC2)cc1`: greater than 54.8 µg/mL; for `c1ccc(CNc2c3ccccc3nc3ccccc23)cc1`: 40.5 µg/mL (≈ 142 µM); for `CC(=O)Nc1ccc(C(=O)NCCN2CCOCC2)cc1`: 36 µg/mL (≈ 124 µM).
Regarding `Cc1c(/C=N/O)c2ccccn2c1C(=O)c1ccc(F)cc1`, the kinetic solubility was 5.5 µg/mL (≈ 18.6 µM).
The same measure for `COc1ccc(C2C(C(C)=O)=C(O)C(=O)N2c2ccc(F)cc2)cc1` (centres undefined): 48.5 µg/mL (≈ 142 µM); for `CCCCN(CC)S(=O)(=O)c1ccc2c(c1)n(C)c(=O)c(=O)n2C`: 2.8 µg/mL (≈ 7.92 µM).
The result for `O=C(COc1ccccc1Cl)NCCCNC(=O)c1ccccn1` reads greater than 52.2 µg/mL; that for `CCc1ccccc1N1C(=O)C(Cl)=C(N2CCOCC2)C1=O`, 45.8 µg/mL (≈ 143 µM).
The result for `CS(=O)(=O)c1ccc(NCCN2CCOCC2)c([N+](=O)[O-])c1` reads 44.4 µg/mL (≈ 135 µM); that for `COc1ccc(C(=O)Nc2ccc(C3(C#N)CCCC3)cc2)cc1OC`, less than 0.4 µg/mL.
As to `C[n+]1c(-c2ccccc2)sc([S-])c1-c1ccccc1`, the solubility (kinetic) worked out at 36 µg/mL (≈ 127 µM).
The same measure for `Cc1ccc(CNC(=O)c2ccc[nH]2)cc1`: greater than 32.1 µg/mL; for `O=C(c1ccc(Br)cc1)N1CCCc2ccccc21`: 14 µg/mL (≈ 44.3 µM); for `c1ccc(-c2ncc(CN3CCN(c4ccccn4)CC3)[nH]2)cc1`: 45.2 µg/mL (≈ 142 µM).
The result for `Cc1ccc(S(=O)(=O)n2cccc2C)cc1` reads 5.1 µg/mL (≈ 21.7 µM).
The result for `COc1ccccc1OCCCC(=O)NC(C)c1ccccc1` (centres undefined) reads greater than 47 µg/mL.
Turning to `COc1ccc(CNC(=O)c2ccc[nH]2)cc1`, the solubility (kinetic) was greater than 34.5 µg/mL.
Regarding `COc1ccc(NC(=O)c2ccc3nc[nH]c3c2)cc1`, the kinetic solubility was greater than 40.1 µg/mL.
The same measure for `COc1ccc(NC(=S)NC(=O)c2cccnc2)cc1`: 15.5 µg/mL (≈ 53.9 µM).
In turn, `C/C(=N\N=C(N)N)c1ccccc1` displayed a solubility (kinetic) greater than 26.4 µg/mL.
The result for `CCOC(=O)c1cn2nc(Oc3cccc(F)c3)ccc2n1` reads greater than 45.2 µg/mL; that for `Cc1cccc(CN(C(=S)Nc2c(C)cccc2C)c2cccnc2)c1`, 16.9 µg/mL (≈ 46.7 µM); that for `O=S(=O)(NCc1ccco1)c1ccc(Cl)s1`, greater than 41.7 µg/mL.
The result for `CC(=O)Nc1ccc(NC(=O)c2ccc(-c3ccccc3Cl)o2)cc1` reads 0.5 µg/mL (≈ 1.41 µM).
The same measure for `Cc1ccccc1C(=O)N1CCC(C(=O)N2CCN(Cc3ccc4c(c3)OCO4)CC2)CC1`: 59.1 µg/mL (≈ 131 µM); for `CCc1ccc(NC(=O)NCCCN2CCCC2=O)cc1`: greater than 43.4 µg/mL; for `CC(C)c1ccc(CNCCCSc2ncccn2)cc1.Cl`: 49.1 µg/mL.
As to `COc1cnc(NS(=O)(=O)c2ccc(N)cc2)nc1`, the solubility (kinetic) is greater than 42 µg/mL.
In the case of `NC(=O)c1c(NC(=O)c2ccccc2F)sc2c1CCCC2`, the solubility (kinetic) came to 3 µg/mL (≈ 9.42 µM).
Compound `COc1ccc(CN(C)CC(=O)Nc2cccc3ccccc23)cc1F` came in with a solubility (kinetic) of 15.1 µg/mL (≈ 42.8 µM).
The result for `O=C(Nc1cccc(S(=O)(=O)N2CCCCC2)c1)c1ccc(Cl)nc1` reads 4.4 µg/mL (≈ 11.6 µM); that for `O=C(O)[C@H](Cc1ccccc1)NC(=O)N1CCCCCC1`, greater than 43.6 µg/mL; that for `COC(=O)c1ccc(C(=O)OC)c(NC(=S)N2CCCC(CO)C2)c1` (centres undefined), 50.9 µg/mL (≈ 139 µM).
The same measure for `O=C(c1cccnc1)N1CCN(S(=O)(=O)c2cccs2)CC1`: greater than 50.6 µg/mL.
The same measure for `CC(C(=O)c1ccccc1)[n+]1cccc(C(N)=O)c1.[Br-]` (centres undefined): greater than 50.3 µg/mL; for `CCOC(=O)c1c(C)oc2c1c(C=NCCC(=O)O)c(O)c1ccccc12`: less than 0.8 µg/mL.
The compound `Cc1cccc(C(=O)NCC(=O)OCC(=O)NC2CCCCC2)c1` returned a kinetic solubility greater than 49.9 µg/mL.
The result for `CCOC(=O)c1c(C)[nH]c(C(=O)COc2ccc3ccc(=O)oc3c2)c1C` reads 9.2 µg/mL (≈ 24.9 µM); that for `CNc1nnc(-c2ccc(OC)cc2)s1`, greater than 33.2 µg/mL.
The same measure for `Cl.O=C(CCN1CCOCC1)Nc1ccc(Cl)cc1`: greater than 45.8 µg/mL.
Take `O=c1oc2ccccc2c(CNc2ccccc2)c1[N+](=O)[O-]`: the solubility (kinetic) is 3.1 µg/mL (≈ 10.5 µM).
The same measure for `CCOc1ccccc1C(=O)Nc1c[nH]c(=O)[nH]c1=O`: 2.4 µg/mL (≈ 8.72 µM).
The result for `Cn1cnc(Sc2ncnc3nc[nH]c23)c1[N+](=O)[O-]` reads 29.7 µg/mL (≈ 107 µM); that for `CN(CC(=O)Nc1ccc(Cl)c(Cl)c1)C(=O)C1CCC1`, greater than 47.3 µg/mL; that for `Cc1ccc(C(=O)CCC(=O)Nc2cccc(C)c2)cc1`, less than 0.6 µg/mL.
The result for `Cc1ccc(NC(=S)N2CCc3[nH]c4ccccc4c3C2)cc1` reads 0.8 µg/mL (≈ 2.49 µM); that for `CC1C(=O)N2CCCc3cc(NC(=O)COc4ccccc4)cc1c32` (centres undefined), 50.2 µg/mL (≈ 149 µM).
For `CN(C)S(=O)(=O)NCCNc1ccc(C(F)(F)F)cc1[N+](=O)[O-]`, the kinetic solubility is 18.2 µg/mL (≈ 51.1 µM).
Compound `Cc1cccc(NC(=O)CNC(=O)c2cccs2)n1` registered a solubility (kinetic) greater than 41.3 µg/mL.
The result for `Nc1ncn([C@@H]2O[C@H](CO)[C@@H](O)[C@H]2O)c(=O)n1` reads greater than 36.6 µg/mL.
The same measure for `Cc1nn(C)c(C)c1/C=C(/C(=O)C(C)C)n1cncn1`: greater than 41 µg/mL; for `COc1ccc(N2C(=O)c3ccccc3C2O)cc1` (centres undefined): greater than 38.3 µg/mL; for `CCCn1c(COc2ccccc2OC)nc2ccccc21`: 39.5 µg/mL (≈ 133 µM).
The result for `CCC(CC)C(=O)c1c[nH]c(C(=O)NCCOC)c1` reads greater than 40 µg/mL.
As to `CCCOC(=O)Nc1sc2c(c1C(N)=O)CCCC2`, the solubility (kinetic) was 1.3 µg/mL (≈ 4.6 µM).
The result for `CC1C(=O)Nc2ccccc2N1C(=O)c1ccc(F)cc1` (centres undefined) reads greater than 42.6 µg/mL.

These data come from PubChem BioAssay AID1996.
